# PubChem BioAssay (NCI)
#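 All cell lines were grown in 96-well plates and treated with compound for 48 hours. GI50: concentration for 50% inhibition of growth. TGI: total growth inhibition.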
# How the values were obtained:
# Assay in all cases: inhibition of tumour cell growth, NCI panel, 48 h
# 786-0 renal = test system: 786-0 renal
# A549 NSCLC = test system: A549 NSCLC
# ACHN renal = test system: ACHN renal
# BT-549 breast = test system: BT-549 breast
# CAKI-1 renal = test system: CAKI-1 renal
# CCRF-CEM leukemia = test system: CCRF-CEM leukemia
# COLO 205 colon = test system: COLO 205 colon
# DU-145 prostate = test system: DU-145 prostate
# EKVX NSCLC = test system: EKVX NSCLC
# HCC-2998 colon = test system: HCC-2998 colon
# HCT-116 colon = test system: HCT-116 colon
# HCT-15 colon = test system: HCT-15 colon
# HL-60(TB) leukemia = test system: HL-60(TB) leukemia
# HOP-62 NSCLC = test system: HOP-62 NSCLC
# HOP-92 NSCLC = test system: HOP-92 NSCLC
# HS 578T breast = test system: HS 578T breast
# HT29 colon = test system: HT29 colon
# IGROV1 ovarian = test system: IGROV1 ovarian
# KM12 colon = test system: KM12 colon
# LOX IMVI melanoma = test system: LOX IMVI melanoma
# M14 melanoma = test system: M14 melanoma
# MALME-3M melanoma = test system: MALME-3M melanoma
# MCF7 breast = test system: MCF7 breast
# MDA-MB-231 breast = test system: MDA-MB-231 breast
# MDA-MB-435 = test system: MDA-MB-435
# MOLT-4 leukemia = test system: MOLT-4 leukemia
# NCI-H226 lung = test system: NCI-H226 lung
# NCI-H23 lung = test system: NCI-H23 lung
# NCI-H460 lung = test system: NCI-H460 lung
# NCI-H522 lung = test system: NCI-H522 lung
# NCI/ADR-RES ovarian = test system: NCI/ADR-RES ovarian
# OVCAR-3 ovarian = test system: OVCAR-3 ovarian
# OVCAR-4 ovarian = test system: OVCAR-4 ovarian
# OVCAR-5 ovarian = test system: OVCAR-5 ovarian
# OVCAR-8 ovarian = test system: OVCAR-8 ovarian
# PC-3 prostate = test system: PC-3 prostate
# RPMI-8226 leukemia = test system: RPMI-8226 leukemia
# RXF 393 renal = test system: RXF 393 renal
# SF-268 CNS = test system: SF-268 CNS
# SF-295 CNS = test system: SF-295 CNS
# SF-539 CNS = test system: SF-539 CNS
# SK-MEL-2 melanoma = test system: SK-MEL-2 melanoma
# SK-MEL-28 melanoma = test system: SK-MEL-28 melanoma
# SK-MEL-5 melanoma = test system: SK-MEL-5 melanoma
# SK-OV-3 ovarian = test system: SK-OV-3 ovarian
# SN12C renal = test system: SN12C renal
# SNB-19 CNS = test system: SNB-19 CNS
# SNB-75 CNS = test system: SNB-75 CNS
# SR leukemia = test system: SR leukemia
# SW-620 colon = test system: SW-620 colon
# T-47D breast = test system: T-47D breast
# TK-10 renal = test system: TK-10 renal
# U251 CNS = test system: U251 CNS
# UACC-257 melanoma = test system: UACC-257 melanoma
# UACC-62 melanoma = test system: UACC-62 melanoma
# UO-31 renal = test system: UO-31 renal
structure (smiles),measurement,setting,value
NC(N)=NN=c1c(=O)c2ccccc2c1=O,GI50,786-0 renal,19.1 µM
same,TGI,786-0 renal,33.3 µM
same,GI50,A549 NSCLC,12.4 µM
same,TGI,A549 NSCLC,30.5 µM
same,GI50,ACHN renal,6.46 µM
same,TGI,ACHN renal,19.2 µM
same,GI50,BT-549 breast,15.7 µM
same,TGI,BT-549 breast,29.2 µM
same,GI50,CAKI-1 renal,18.9 µM
same,TGI,CAKI-1 renal,41.2 µM
same,GI50,CCRF-CEM leukemia,2140 nM
same,TGI,CCRF-CEM leukemia,5.27 µM
same,GI50,COLO 205 colon,17.9 µM
same,TGI,COLO 205 colon,32.4 µM
same,GI50,DU-145 prostate,1900 nM
same,TGI,DU-145 prostate,3.39 µM
same,GI50,EKVX NSCLC,18.7 µM
same,TGI,EKVX NSCLC,34.8 µM
same,GI50,HCC-2998 colon,14.2 µM
same,TGI,HCC-2998 colon,28 µM
same,GI50,HCT-116 colon,2010 nM
same,TGI,HCT-116 colon,4.18 µM
same,GI50,HCT-15 colon,1880 nM
same,TGI,HCT-15 colon,3.84 µM
same,GI50,HL-60(TB) leukemia,21.5 µM
same,TGI,HL-60(TB) leukemia,48.6 µM
same,GI50,HOP-62 NSCLC,9 µM
same,TGI,HOP-62 NSCLC,21 µM
same,GI50,HOP-92 NSCLC,19.3 µM
same,TGI,HOP-92 NSCLC,34.9 µM
same,GI50,HS 578T breast,10.1 µM
same,TGI,HS 578T breast,> 100 µM
same,GI50,HT29 colon,2810 nM
same,TGI,HT29 colon,6.27 µM
same,GI50,IGROV1 ovarian,17.2 µM
same,TGI,IGROV1 ovarian,35.3 µM
same,GI50,KM12 colon,3.34 µM
same,TGI,KM12 colon,10.7 µM
same,GI50,LOX IMVI melanoma,1580 nM
same,TGI,LOX IMVI melanoma,3.25 µM
same,GI50,M14 melanoma,2000 nM
same,TGI,M14 melanoma,3.46 µM
same,GI50,MALME-3M melanoma,1660 nM
same,TGI,MALME-3M melanoma,3.06 µM
same,GI50,MCF7 breast,8.89 µM
same,TGI,MCF7 breast,27.9 µM
same,GI50,MDA-MB-231 breast,16 µM
same,TGI,MDA-MB-231 breast,33.7 µM
same,GI50,MDA-MB-435,1950 nM
same,TGI,MDA-MB-435,3.71 µM
same,GI50,MOLT-4 leukemia,1460 nM
same,TGI,MOLT-4 leukemia,3.82 µM
same,GI50,NCI-H226 lung,14.8 µM
same,TGI,NCI-H226 lung,28.1 µM
same,GI50,NCI-H23 lung,1790 nM
same,TGI,NCI-H23 lung,3.94 µM
same,GI50,NCI-H460 lung,2920 nM
same,TGI,NCI-H460 lung,7.14 µM
same,GI50,NCI-H522 lung,17.7 µM
same,TGI,NCI-H522 lung,32.8 µM
same,GI50,NCI/ADR-RES ovarian,10.4 µM
same,TGI,NCI/ADR-RES ovarian,31.7 µM
same,GI50,OVCAR-3 ovarian,13 µM
same,TGI,OVCAR-3 ovarian,26.4 µM
same,GI50,OVCAR-4 ovarian,12.6 µM
same,TGI,OVCAR-4 ovarian,25.2 µM
same,GI50,OVCAR-5 ovarian,17.5 µM
same,TGI,OVCAR-5 ovarian,32.5 µM
same,GI50,OVCAR-8 ovarian,10.1 µM
same,TGI,OVCAR-8 ovarian,22.5 µM
same,GI50,PC-3 prostate,12.7 µM
same,TGI,PC-3 prostate,29.8 µM
same,GI50,RPMI-8226 leukemia,5.7 µM
same,TGI,RPMI-8226 leukemia,29.6 µM
same,GI50,RXF 393 renal,13.1 µM
same,TGI,RXF 393 renal,25.9 µM
same,GI50,SF-268 CNS,2060 nM
same,TGI,SF-268 CNS,3.81 µM
same,GI50,SF-295 CNS,13.6 µM
same,TGI,SF-295 CNS,27.7 µM
same,GI50,SF-539 CNS,5.67 µM
same,TGI,SF-539 CNS,18 µM
same,GI50,SK-MEL-2 melanoma,20.7 µM
same,TGI,SK-MEL-2 melanoma,40.1 µM
same,GI50,SK-MEL-28 melanoma,2000 nM
same,TGI,SK-MEL-28 melanoma,3.88 µM
same,GI50,SK-MEL-5 melanoma,2930 nM
same,TGI,SK-MEL-5 melanoma,11.7 µM
same,GI50,SK-OV-3 ovarian,19.6 µM
same,TGI,SK-OV-3 ovarian,33.8 µM
same,GI50,SN12C renal,1810 nM
same,TGI,SN12C renal,3.83 µM
same,GI50,SNB-19 CNS,1720 nM
same,TGI,SNB-19 CNS,3.25 µM
same,GI50,SNB-75 CNS,11.4 µM
same,TGI,SNB-75 CNS,23.7 µM
same,GI50,SR leukemia,2400 nM
same,TGI,SR leukemia,5.92 µM
same,GI50,SW-620 colon,1960 nM
same,TGI,SW-620 colon,4.76 µM
same,GI50,T-47D breast,23.5 µM
same,TGI,T-47D breast,50.4 µM
same,GI50,TK-10 renal,22.6 µM
same,TGI,TK-10 renal,37.4 µM
same,GI50,U251 CNS,4.36 µM
same,TGI,U251 CNS,15.8 µM
same,GI50,UACC-257 melanoma,15.1 µM
same,TGI,UACC-257 melanoma,28.9 µM
same,GI50,UACC-62 melanoma,12.7 µM
same,TGI,UACC-62 melanoma,25.8 µM
same,GI50,UO-31 renal,6.81 µM
same,TGI,UO-31 renal,20.1 µM
